Source: publication PMC7023430, “4-Aminobenzoic Acid Derivatives: Converting Folate Precursor to Antimicrobial and Cytotoxic Agents” (Biomolecules, 2019)
Values after ≈ are worked out from the molar mass of the structure shown. Like-named read-outs stand apart in the source and are kept apart here.

Key:
[1] = test system: Staphylococcus aureus ATCC 29213, CCM 4223; test: Antibacterial microdilution broth method, S. aureus; format: cell-based
[2] = test system: methicillin-resistant Staphylococcus aureus ATCC 43300, CCM 4750 (MRSA); test: Antibacterial microdilution broth method, MRSA; format: cell-based; conditions: Staphylococcus aureus
[3] = test system: Staphylococcus epidermidis H 6966/08; test: Antibacterial microdilution broth method, S. epidermidis; format: cell-based; conditions: Staphylococcus epidermidis, H6966/08, S. epidermidis
[4] = test system: Enterococcus faecalis ATCC 29212, CCM 4224; test: Antibacterial microdilution broth method, E. faecalis; format: cell-based; conditions: Enterococcus faecalis
[5] = test system: Escherichia coli ATCC 25922, CCM 3954; test: Antibacterial microdilution broth method, E. coli; format: cell-based; conditions: Escherichia coli
[6] = test system: Pseudomonas aeruginosa ATCC 27853, CCM 3955; test: Antibacterial microdilution broth method, P. aeruginosa; format: cell-based; conditions: Pseudomonas aeruginosa
[7] = test system: Mycobacterium tuberculosis H37Rv (331/88); test: Antimycobacterial micromethod in Šula's medium, M. tuberculosis; format: cell-based
[8] = test system: Mycobacterium avium 330/88; test: Antimycobacterial micromethod in Šula's medium, M. avium; format: cell-based
[9] = test system: Mycobacterium kansasii 235/80; test: Antimycobacterial micromethod in Šula's medium, M. kansasii 235/80; format: cell-based
[10] = test system: M. kansasii 6509/96 (clinical isolate); test: Antimycobacterial micromethod in Šula's medium, M. kansasii 6509/96; format: cell-based; conditions: Mycobacterium kansasii
[11] = test system: Candida albicans ATCC 44859; test: Antifungal microdilution broth method, C. albicans; format: cell-based
Method: (§1) The antifungal properties were evaluated against five yeast strains, namely: Candida albicans ATCC 44859, Candida tropicalis 156, Candida krusei […], Candida glabrata 20/I, Trichosporon […] 1188 and three strains of filamentous fungi: Aspergillus fumigatus 231, Lichtheimia corymbifera 272, and Trichophyton interdigitale 445. A microdilution broth method was performed according to EUCAST II, III instructions with slight modifications. Briefly, tested compounds were dissolved in DMSO and diluted in a twofold manner with RPMI-1640 medium with L-glutamine, supplemented with 2% glucose (w/v) and buffered to pH 7.0 with 3 morpholinopropane-1-sulfonic acid (all components were purchased from Sigma-Aldrich, USA). […] Positive controls consisted of test microbe solely, while negative controls consisted of medium and DMSO. Internal quality control was included too. Visual inspection was used for MIC endpoints evaluation. The experiments were conducted in duplicates. For the results to be valid, the difference in MIC determined from two parallel measurements must not be greater than one step on the dilution scale. PABA and triazole antimycotic drug fluconazole were involved as the reference compounds.

Candida tropicalis 156 = test: Antifungal microdilution broth method, C. tropicalis; format: cell-based
Method: as §1

Candida krusei E28 = test: Antifungal microdilution broth method, C. krusei; format: cell-based; conditions: Pichia kudriavzevii
Method: as §1

Candida glabrata 20/I = test: Antifungal microdilution broth method, C. glabrata; format: cell-based; conditions: Nakaseomyces glabratus
Method: as §1

Trichosporon asahii 1188 = test: Antifungal microdilution broth method, T. asahii; format: cell-based
Method: as §1

[12] = test system: Aspergillus fumigatus 231; test: Antifungal microdilution broth method, A. fumigatus; format: cell-based
Method: as §1

[13] = test system: Lichtheimia corymbifera 272; test: Antifungal microdilution broth method, L. corymbifera; format: cell-based
Method: as §1

[14] = test system: Trichophyton interdigitale 445; test: Antifungal microdilution broth method, T. interdigitale; format: cell-based
Method: as §1

[15] = test system: four Gram-positive and four Gram-negative strains; test: Antibacterial activity; format: cell-based; conditions: time not stated
[16] = test system: Mtb. 331/88 and three non-tuberculous mycobacterial strains; test: Antimycobacterial activity; format: cell-based; conditions: statement over four mycobacterial strains; time not stated
eight fungal strains = test: Antifungal activity; format: cell-based; conditions: statement over the fungal panel; time not stated
Method: as §1

[17] = test system: ESBL-positive Klebsiella pneumoniae J 14368/08
[18] = test system: Klebsiella pneumoniae D 11750/08; test: Antibacterial microdilution broth method, K. pneumoniae; conditions: K. pneumoniae D 11750/08; for MIC KP 24 h: 24 h incubation; for MIC KP 48 h: 48 h incubation
[19] = 24 h incubation, read-out: MIC SA 24 h
[20] = 48 h incubation, read-out: MIC SA 48 h
[21] = 24 h incubation, read-out: MIC MRSA 24 h
[22] = 48 h incubation, read-out: MIC MRSA 48 h
[23] = 24 h incubation, read-out: MIC SE 24 h
[24] = 48 h incubation, read-out: MIC SE 48 h
[25] = 24 h incubation, read-out: MIC EF 24 h
[26] = 48 h incubation, read-out: MIC EF 48 h
[27] = 24 h incubation, read-out: MIC EC 24 h
[28] = 48 h incubation, read-out: MIC EC 48 h
[29] = P. aeruginosa, 24 h incubation, read-out: MIC PA 24 h
[30] = P. aeruginosa, 48 h incubation, read-out: MIC PA 48 h
[31] = 336 h, 14 days incubation at 37 °C, read-out: MIC Mtb. 331/88 14 d
[32] = 504 h, 21 days incubation at 37 °C, read-out: MIC Mtb. 331/88 21 d
[33] = 330/88, 336 h, 14 days incubation at 37 °C, read-out: MIC M. avium 330/88 14 d
[34] = 330/88, 504 h, 21 days incubation at 37 °C, read-out: MIC M. avium 330/88 21 d
[35] = 235/80, 168 h, 7 days incubation at 37 °C, read-out: MIC M. kansasii 235/80 7 d
[36] = 235/80, 336 h, 14 days incubation at 37 °C, read-out: MIC M. kansasii 235/80 14 d
[37] = 235/80, 504 h, 21 days incubation at 37 °C, read-out: MIC M. kansasii 235/80 21 d
[38] = 168 h, 7 days incubation at 37 °C, read-out: MIC M. kansasii 6509/96 7 d
[39] = 336 h, 14 days incubation at 37 °C, read-out: MIC M. kansasii 6509/96 14 d
[40] = 504 h, 21 days incubation at 37 °C, read-out: MIC M. kansasii 6509/96 21 d
[41] = ATCC44859, 24 h, read-out: MIC CA 24 h
[42] = ATCC44859, 48 h, read-out: MIC CA 48 h

With `O=C(O)c1ccc(N=Cc2ccccc2O)cc1` [1a, 4-[(2-Hydroxybenzylidene)amino]benzoic acid] the MIC [1, 19] was > 500 µM, the MIC [1, 20] was > 500 µM and the MIC [2, 21] was > 500 µM. The MIC [2, 22] was > 500 µM, the MIC [3, 23] was > 500 µM and the MIC [3, 24] was > 500 µM. The MIC [4, 25] was > 500 µM, the MIC [4, 26] was > 500 µM and the MIC [5, 27] was > 500 µM. For the same compound, the MIC [5, 28] was > 500 µM, the MIC [6, 29] was > 500 µM and the MIC [6, 30] was > 500 µM. The MIC [7, 31] was > 1000 µM, the MIC [7, 32] was > 1000 µM and the MIC [8, 33] was > 1000 µM. The MIC [8, 34] was > 1000 µM, the MIC [9, 35] was 1000 µM (≈ 241 µg/mL) and the MIC [9, 36] was > 1000 µM. The MIC [9, 37] was > 1000 µM, the MIC [10, 38] was 1000 µM (≈ 241 µg/mL) and the MIC [10, 39] was 1000 µM (≈ 241 µg/mL). The MIC [10, 40] was 1000 µM (≈ 241 µg/mL), the MIC [11, 41] was > 500 µM and the MIC [11, 42] was > 500 µM. For the same compound, the MIC (Candida tropicalis 156; 24 h, read-out: MIC CT 24 h) was > 500 µM, the MIC (Candida tropicalis 156; 48 h, read-out: MIC CT 48 h) was > 500 µM and the MIC (Candida krusei E28; 24 h, read-out: MIC CK 24 h) was > 500 µM. For the same compound, the MIC (Candida krusei E28; 48 h, read-out: MIC CK 48 h) was > 500 µM, the MIC (Candida glabrata 20/I; 24 h, read-out: MIC CG 24 h) was > 500 µM and the MIC (Candida glabrata 20/I; 48 h, read-out: MIC CG 48 h) was > 500 µM. For the same compound, the MIC (Trichosporon asahii 1188; 24 h, read-out: MIC TA 24 h) was > 500 µM, the MIC (Trichosporon asahii 1188; 48 h, read-out: MIC TA 48 h) was > 500 µM and the MIC ([12]; 24 h, read-out: MIC AF 24 h) was > 500 µM. For the same compound, the MIC ([12]; 48 h, read-out: MIC AF 48 h) was > 500 µM, the MIC ([13]; 24 h, read-out: MIC LC 24 h) was > 500 µM and the MIC ([13]; 48 h, read-out: MIC LC 48 h) was > 500 µM. For the same compound, the MIC ([14]; 72 h, read-out: MIC TI 72 h) was > 500 µM, the MIC ([14]; 120 h, read-out: MIC TI 120 h) was > 500 µM and the “MIC, antibacterial activity” value ([15]; statement over the bacterial panel) was “avoided any antibacterial action”. For the same compound, the “MIC, antimycobacterial activity” value [16] was “only negligible antimycobacterial activity”, the “MIC, antifungal activity” value (eight fungal strains) was “no antimycotic potency” and the “MIC KP-E 24 h” value [17] was >500 µM. The “MIC KP-E 48 h” value [17] was >500 µM, the “MIC KP 24 h” value [18] was >500 µM and the “MIC KP 48 h” value [18] was >500 µM.
`O=C(O)c1ccc(N=Cc2cc(O)ccc2O)cc1` [1i, 4-[(2,5-Dihydroxybenzylidene)amino]benzoic acid] showed an MIC [1, 19] of 500 µM (≈ 129 µg/mL), an MIC [1, 20] of 500 µM (≈ 129 µg/mL) and an MIC [2, 21] of 250 µM (≈ 64.3 µg/mL). The MIC [2, 22] was 250 µM (≈ 64.3 µg/mL), the MIC [3, 23] was 250 µM (≈ 64.3 µg/mL) and the MIC [3, 24] was 250 µM (≈ 64.3 µg/mL). For the same compound, the MIC [4, 25] was 500 µM (≈ 129 µg/mL), the MIC [4, 26] was 500 µM (≈ 129 µg/mL) and the MIC [5, 27] was > 500 µM. The MIC [5, 28] was > 500 µM, the MIC [6, 29] was 500 µM (≈ 129 µg/mL) and the MIC [6, 30] was 500 µM (≈ 129 µg/mL). The MIC ([6]; time not stated, read-out: MIC, P. aeruginosa) was 500 µM (≈ 129 µg/mL), the MIC [7, 31] was 500 µM (≈ 129 µg/mL) and the MIC [7, 32] was 1000 µM (≈ 257 µg/mL). The MIC [8, 33] was 1000 µM (≈ 257 µg/mL), the MIC [8, 34] was > 1000 µM and the MIC [9, 35] was 500 µM (≈ 129 µg/mL). The MIC [9, 36] was 500 µM (≈ 129 µg/mL), the MIC [9, 37] was 1000 µM (≈ 257 µg/mL) and the MIC [10, 38] was 500 µM (≈ 129 µg/mL). The MIC [10, 39] was 1000 µM (≈ 257 µg/mL), the MIC [10, 40] was 1000 µM (≈ 257 µg/mL) and the MIC [11, 41] was 500 µM (≈ 129 µg/mL). The MIC [11, 42] was 500 µM (≈ 129 µg/mL), the MIC (Candida tropicalis 156; 24 h, read-out: MIC CT 24 h) was > 500 µM and the MIC (Candida tropicalis 156; 48 h, read-out: MIC CT 48 h) was > 500 µM. For the same compound, the MIC (Candida krusei E28; 24 h, read-out: MIC CK 24 h) was > 500 µM, the MIC (Candida krusei E28; 48 h, read-out: MIC CK 48 h) was > 500 µM and the MIC (Candida glabrata 20/I; 24 h, read-out: MIC CG 24 h) was 250 µM (≈ 64.3 µg/mL). The MIC (Candida glabrata 20/I; 48 h, read-out: MIC CG 48 h) was 250 µM (≈ 64.3 µg/mL), the MIC (Trichosporon asahii 1188; 24 h, read-out: MIC TA 24 h) was > 500 µM and the MIC (Trichosporon asahii 1188; 48 h, read-out: MIC TA 48 h) was > 500 µM. The MIC ([12]; 24 h, read-out: MIC AF 24 h) was > 500 µM, the MIC ([12]; 48 h, read-out: MIC AF 48 h) was > 500 µM and the MIC ([13]; 24 h, read-out: MIC LC 24 h) was > 500 µM. The MIC ([13]; 48 h, read-out: MIC LC 48 h) was > 500 µM, the MIC ([14]; 72 h, read-out: MIC TI 72 h) was > 500 µM and the MIC ([14]; 120 h, read-out: MIC TI 120 h) was > 500 µM. The MIC ([15]; Staphylococcus aureus, MRSA, read-out: MIC, multiple Gram-positive strains including MRSA) was ≥ 250 µM, the MIC (eight fungal strains) was ≥ 250 µM and the “MIC KP-E 24 h” value [17] was 500 µM (≈ 129 µg/mL). The “MIC KP-E 48 h” value [17] was 500 µM (≈ 129 µg/mL), the “MIC KP 24 h” value [18] was 500 µM (≈ 129 µg/mL) and the “MIC KP 48 h” value [18] was 500 µM (≈ 129 µg/mL).
